Experimental data reported in ChEMBL document CHEMBL1201862, “PubChem BioAssay data set” (2004).
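Interpolation was linear, between the two tested concentrations surrounding the appropriate level; five concentrations were tested over 48 hours in 96-well plates. GI50 = concentration required for 50% inhibition of growth.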 Activity calls are given as the source filed them. Rule as the data show it: active = GI50 up to about 1.1 µM and inactive = higher.

How the values were obtained:
Test in all cases: NCI tumour cell line growth inhibition, 48 h
ACHN = test system: ACHN
NCI-H226 = test system: NCI-H226
K562 = test system: K562
NCI/ADR-RES = test system: NCI/ADR-RES
MOLT-4 = test system: MOLT-4
SK-MEL-28 = test system: SK-MEL-28
NCI-H522 = test system: NCI-H522
DU-145 = test system: DU-145
RXF 393 = test system: RXF 393
LOX IMVI = test system: LOX IMVI
SN12C = test system: SN12C
UACC-62 = test system: UACC-62
OVCAR-3 = test system: OVCAR-3
UACC-257 = test system: UACC-257
A549 = test system: A549
CCRF-CEM = test system: CCRF-CEM
SR = test system: SR
T47D = test system: T47D
MDA-MB-231 = test system: MDA-MB-231
TK-10 = test system: TK-10
SNB-75 = test system: SNB-75
SK-OV-3 = test system: SK-OV-3
M14 = test system: M14
COLO 205 = test system: COLO 205
EKVX = test system: EKVX
UO-31 = test system: UO-31
SK-MEL-2 = test system: SK-MEL-2
HT-29 = test system: HT-29
OVCAR-4 = test system: OVCAR-4
BT-549 = test system: BT-549
MCF7 = test system: MCF7
KM12 = test system: KM12
786-0 = test system: 786-0
SF-295 = test system: SF-295
CAKI-1 = test system: CAKI-1
PC-3 = test system: PC-3
SK-MEL-5 = test system: SK-MEL-5
MDA-N = test system: MDA-N
HCC 2998 = test system: HCC 2998
HL-60 = test system: HL-60
HOP-62 = test system: HOP-62
A498 = test system: A498
NCI-H460 = test system: NCI-H460
OVCAR-8 = test system: OVCAR-8
SF-539 = test system: SF-539
SF-268 = test system: SF-268
IGROV-1 = test system: IGROV-1
NCI-H23 = test system: NCI-H23
Malme-3M = test system: Malme-3M
Hs-578T = test system: Hs-578T
SW-620 = test system: SW-620
HCT-15 = test system: HCT-15
U-251 = test system: U-251
SNB-19 = test system: SNB-19
RPMI-8226 = test system: RPMI-8226
HCT-116 = test system: HCT-116
OVCAR-5 = test system: OVCAR-5
MDA-MB-435 = test system: MDA-MB-435
HOP-92 = test system: HOP-92

Measured: GI50

CC(C)C1(C)N=C(C(F)(F)F)c2cc(C(=O)C(F)(F)F)c3ccccc3c2N1 (stereo not drawn)
3.23 µM: HCT-15
inactive: ACHN 3.53 µM | NCI-H226 12.9 µM | K562 3.96 µM | NCI/ADR-RES 2.78 µM | MOLT-4 3.07 µM | SK-MEL-28 5.22 µM | NCI-H522 2.3 µM | DU-145 3.71 µM | RXF 393 2.71 µM | LOX IMVI 2.45 µM | SN12C 2.91 µM | UACC-62 4.33 µM | OVCAR-3 3.08 µM | UACC-257 6.55 µM | A549 5.43 µM | CCRF-CEM 15.8 µM | SR 4.39 µM | T47D 3.13 µM | MDA-MB-231 2.73 µM | TK-10 4.51 µM | SNB-75 2.31 µM | SK-OV-3 15 µM | M14 4.99 µM | COLO 205 4.14 µM | EKVX 4.91 µM | UO-31 5.9 µM | SK-MEL-2 2.51 µM | HT-29 3.44 µM | OVCAR-4 4.91 µM | BT-549 3.08 µM | MCF7 4.03 µM | KM12 3.31 µM | 786-0 3.7 µM | SF-295 3.38 µM | CAKI-1 3.34 µM | PC-3 2.52 µM | SK-MEL-5 10.7 µM | MDA-N 3.04 µM | HCC 2998 3.69 µM | HL-60 4.62 µM | HOP-62 4.9 µM | A498 14.9 µM | NCI-H460 4.41 µM | OVCAR-8 4.17 µM | SF-539 6.5 µM | SF-268 3.02 µM | IGROV-1 1.16 µM | NCI-H23 2.77 µM | Malme-3M 3 µM | Hs-578T 2.5 µM | SW-620 5.55 µM | U-251 2.91 µM | SNB-19 4.14 µM | RPMI-8226 3.53 µM | HCT-116 2.94 µM | OVCAR-5 11.2 µM | MDA-MB-435 3.21 µM

C=C1CC(Cn2ccc(=O)[nH]c2=O)(c2ccc(OC)cc2)OC1=O (stereo not drawn)
inactive: ACHN 18.7 µM | NCI-H226 16.3 µM | K562 3.2 µM | NCI/ADR-RES 16 µM | MOLT-4 2.5 µM | SK-MEL-28 18 µM | NCI-H522 1.94 µM | DU-145 17.4 µM | LOX IMVI 10.9 µM | SN12C 13.8 µM | UACC-62 14.3 µM | OVCAR-3 19.3 µM | UACC-257 14.8 µM | A549 24 µM | CCRF-CEM 2.88 µM | SR 2.9 µM | T47D 16.3 µM | MDA-MB-231 16.6 µM | TK-10 10 µM | SNB-75 > 10 µM | SK-OV-3 28.8 µM | M14 7.21 µM | COLO 205 4.14 µM | EKVX 19.5 µM | UO-31 17.2 µM | SK-MEL-2 12.8 µM | HT-29 13.2 µM | OVCAR-4 16.8 µM | BT-549 12.2 µM | MCF7 4.43 µM | KM12 18.8 µM | 786-0 11.7 µM | SF-295 34.7 µM | CAKI-1 6.34 µM | PC-3 16 µM | SK-MEL-5 13.9 µM | MDA-N 12.7 µM | HCC 2998 13 µM | HL-60 2.35 µM | HOP-62 47.4 µM | A498 15.3 µM | NCI-H460 40.6 µM | OVCAR-8 20.1 µM | SF-539 18.6 µM | SF-268 23.9 µM | IGROV-1 15.7 µM | NCI-H23 11.2 µM | Malme-3M 10.1 µM | Hs-578T 18.1 µM | SW-620 3.7 µM | U-251 22.3 µM | SNB-19 > 68.4 µM | RPMI-8226 2.88 µM | HCT-116 6.15 µM | OVCAR-5 17.5 µM | MDA-MB-435 15.8 µM | HOP-92 2.34 µM
14.8 µM: HCT-15

O=C(O)c1cc2c(cc1CC(Cc1ccccc1)C(=O)O)CCC2 (stereo not drawn)
inactive: ACHN > 100 µM | NCI-H226 > 100 µM | K562 > 100 µM | NCI/ADR-RES > 100 µM | MOLT-4 > 100 µM | SK-MEL-28 > 100 µM | NCI-H522 > 100 µM | DU-145 > 100 µM | RXF 393 > 100 µM | LOX IMVI > 100 µM | SN12C > 100 µM | OVCAR-3 > 100 µM | UACC-257 > 100 µM | A549 > 100 µM | CCRF-CEM > 100 µM | SR > 100 µM | T47D > 100 µM | MDA-MB-231 > 100 µM | TK-10 > 100 µM | SNB-75 > 100 µM | SK-OV-3 > 100 µM | M14 > 100 µM | COLO 205 > 100 µM | EKVX > 100 µM | UO-31 > 100 µM | SK-MEL-2 > 100 µM | HT-29 > 100 µM | OVCAR-4 > 100 µM | BT-549 > 100 µM | MCF7 > 100 µM | KM12 > 100 µM | 786-0 > 100 µM | SF-295 > 100 µM | CAKI-1 > 100 µM | PC-3 > 100 µM | SK-MEL-5 > 100 µM | MDA-N > 100 µM | HCC 2998 > 100 µM | HL-60 > 100 µM | HOP-62 > 100 µM | A498 > 100 µM | NCI-H460 > 100 µM | OVCAR-8 > 100 µM | SF-539 > 100 µM | SF-268 > 100 µM | IGROV-1 > 100 µM | NCI-H23 > 100 µM | Malme-3M > 100 µM | Hs-578T > 100 µM | SW-620 > 100 µM | U-251 > 100 µM | SNB-19 > 100 µM | RPMI-8226 > 100 µM | HCT-116 > 100 µM | OVCAR-5 > 100 µM | MDA-MB-435 > 100 µM
> 100 µM: HCT-15

NC(=O)CC(N)c1nnn[nH]1 (stereo not drawn)
> 100 µM: HCT-15
inactive: ACHN > 100 µM | NCI-H226 > 100 µM | K562 > 100 µM | NCI/ADR-RES > 100 µM | MOLT-4 > 100 µM | SK-MEL-28 > 100 µM | NCI-H522 > 100 µM | DU-145 > 100 µM | RXF 393 > 100 µM | LOX IMVI > 100 µM | SN12C > 100 µM | UACC-62 > 100 µM | OVCAR-3 > 100 µM | UACC-257 > 100 µM | A549 > 100 µM | CCRF-CEM > 100 µM | SR > 100 µM | T47D > 100 µM | MDA-MB-231 > 100 µM | TK-10 > 100 µM | SNB-75 > 100 µM | SK-OV-3 > 100 µM | M14 > 100 µM | COLO 205 > 100 µM | EKVX > 100 µM | UO-31 > 100 µM | SK-MEL-2 > 100 µM | HT-29 > 100 µM | OVCAR-4 > 100 µM | BT-549 > 100 µM | MCF7 > 100 µM | KM12 > 100 µM | 786-0 > 100 µM | SF-295 > 100 µM | CAKI-1 > 100 µM | PC-3 > 100 µM | SK-MEL-5 > 100 µM | MDA-N > 100 µM | HL-60 > 100 µM | HOP-62 > 100 µM | A498 > 100 µM | NCI-H460 > 100 µM | OVCAR-8 > 100 µM | SF-539 > 100 µM | SF-268 > 100 µM | IGROV-1 > 100 µM | NCI-H23 > 100 µM | Malme-3M > 100 µM | Hs-578T > 100 µM | SW-620 > 100 µM | U-251 > 100 µM | SNB-19 > 100 µM | RPMI-8226 > 100 µM | HCT-116 > 100 µM | OVCAR-5 > 100 µM | MDA-MB-435 > 100 µM | HOP-92 > 100 µM

COC(=O)c1ccccc1NC(=S)NN(C)C
> 100 µM: HCT-15
inactive: ACHN > 100 µM | NCI-H226 > 100 µM | K562 > 100 µM | NCI/ADR-RES > 100 µM | MOLT-4 > 100 µM | SK-MEL-28 > 100 µM | NCI-H522 > 100 µM | DU-145 > 100 µM | RXF 393 > 100 µM | LOX IMVI > 100 µM | UACC-62 > 100 µM | OVCAR-3 > 100 µM | UACC-257 > 100 µM | A549 > 100 µM | CCRF-CEM > 100 µM | SR > 100 µM | T47D > 100 µM | MDA-MB-231 > 100 µM | TK-10 > 100 µM | SNB-75 28.6 µM | SK-OV-3 > 100 µM | M14 > 100 µM | COLO 205 > 100 µM | EKVX > 100 µM | UO-31 > 100 µM | SK-MEL-2 > 100 µM | OVCAR-4 > 100 µM | BT-549 > 100 µM | MCF7 > 100 µM | KM12 > 100 µM | 786-0 > 100 µM | SF-295 > 100 µM | CAKI-1 > 100 µM | PC-3 > 100 µM | MDA-N > 100 µM | HCC 2998 > 100 µM | HL-60 > 100 µM | A498 > 100 µM | OVCAR-8 > 100 µM | SF-539 > 100 µM | IGROV-1 > 100 µM | NCI-H23 > 100 µM | Malme-3M > 100 µM | Hs-578T > 100 µM | SW-620 > 100 µM | U-251 > 100 µM | SNB-19 > 100 µM | RPMI-8226 > 100 µM | HCT-116 > 100 µM | OVCAR-5 > 100 µM | MDA-MB-435 > 100 µM
